Test results taken from US6812380B2, “Compositions and methods of zearalenone detoxification” (Pioneer Hi-Bred International, Inc., priority 2001, dated 2004).

Key:
[1] = molecular target: T1, ZES2b translation products (Bionectria ochroleuca, UniProt Q8NKB0, A65V/H263Y/S41R/T3I); type: biochemical, Gliocladium roseum; conditions: 37° C. for 16 hours
T1 construct: made in house; host or cells: cell-free coupled transcription/translation (Roche RTS500; T7 polymerase, E. coli ribosomes) from plasmids pFMB35-34 (cDNA) and pFMB35-13 (genomic DNA)
T1 sequence (Q8NKB0 1-264 T3I/S41R/A65V/H263Y): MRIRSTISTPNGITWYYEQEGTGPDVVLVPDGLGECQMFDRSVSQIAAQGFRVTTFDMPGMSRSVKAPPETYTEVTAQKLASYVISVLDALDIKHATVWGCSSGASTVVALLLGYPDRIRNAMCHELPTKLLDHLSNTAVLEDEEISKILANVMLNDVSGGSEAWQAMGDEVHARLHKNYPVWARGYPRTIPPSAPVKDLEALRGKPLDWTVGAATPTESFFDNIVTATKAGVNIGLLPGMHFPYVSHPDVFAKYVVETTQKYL

[2] = system: zearalenone esterase synthesis in G. roseum; conditions: cited from earlier work
[3] = system: ZES1, ZES2, and ZES2b transcripts; assay: Differential transcript profiling (Curagen Profiling) of G. roseum cultures; type: cell-based, Gliocladium roseum; conditions: G. roseum cultured with 10 μg/ml for 12 hours at 22° C.
Procedure: The ZES1, ZES2, and ZES2b sequences of the invention were identified by assaying for differential expression patterns in the presence of α-zearalenol and β-zearalenol, which allowed for identification of the nucleotide sequences of the invention. Specifically, G. roseum was cultured in the presence of either 10 μg/ml α-zearalenol or 10 μg/ml β-zearalenol for 12 hours at 22° C. Following culturing, Curagen Profiling technology was used to identify transcripts present in α-zearalenol-induced cultures but absent in β-zearalenol-induced cultures.

[4] = system: human breast cancer cells; conditions: cited from earlier work
rats = conditions: rat, in vivo; cited from earlier work
uterine tissues = conditions: mouse, in vivo; cited from earlier work
mice = conditions: mouse, in vivo; cited from earlier work
Armenian hamster = conditions: in vivo; cited from earlier work
humans = conditions: in vivo; cited from earlier work

SMILES	degradation of substrate after incubation with the translation product of pFMB35-13 [1]	degradation of substrate after incubation with the translation product of pFMB35-34 [1]	induction of synthesis of zearalenone esterase in G. roseum [2]	expression of ZES1, ZES2, and ZES2b transcripts in induced cultures [3]	entry of human breast cancer cells into the cell cycle [4]	teratogenicity (rats)	modulation of uterine tissues (uterine tissues)	carcinogenicity (mice)	induction of hepatic carcinomas (Armenian hamster)	estrogenic effects in humans (humans)	hyperestrogenic syndrome in humans (humans)
C[C@H]1CCC[C@@H](O)CCC/C=C/c2cc(O)cc(O)c2C(=O)O1 [β-zearalenol]	completely degraded	completely degraded	does not induce synthesis of zearalenone esterase	–	–	–	–	–	–	–	–
C[C@H]1CCC[C@H](O)CCC/C=C/c2cc(O)cc(O)c2C(=O)O1 [α-zearalenol]	completely degraded	completely degraded	occurs only when zearalenone or its derivative α-zearalenol is present in the culture medium	upregulated	–	–	–	–	–	–	–
C[C@H]1CCCC(=O)CCC/C=C/c2cc(O)cc(O)c2C(=O)O1 [zearalenone]	completely degraded	completely degraded	occurs only when zearalenone or its derivative α-zearalenol is present in the culture medium	–	stimulates human breast cancer cells to enter the cell cycle	teratogenic	induce modulation of uterine tissues	carcinogenic	induce hepatic carcinomas	exhibits estrogenic effects	causes hyperestrogenic syndrome
